# Assay results published in ChEMBL document CHEMBL3301451, “MMV Malaria Box gametocyte functional viability assay screening”.
# Legend:
# Plasmodium falciparum [1] = assay: (§1) MMV: P. falciparum NF54 functionally mature Stage V gametocytes were incubated for 24 hr in the presence of the test compounds. Gamete formation was then triggered by addition of 2uM xantheurenic acid and temperature decrease to ~20C. Female gamete formation was recorded 24 hr later by automated microscopy detection of surface labelling of female gametes with a Cy3-conjugated antibody reactive to Pfs25. All compounds were tested in 4 independent experiments and data presented here is the mean. IC50s determined for selected compounds.; format: functional, organism-based; details: NF54, 24 h
# Plasmodium falciparum [2] = assay: (§2) MMV: P. falciparum NF54 functionally mature Stage V gametocytes were incubated for 24 hr in the presence of the test compounds. Gamete formation was then triggered by addition of 2uM xantheurenic acid and temperature decrease to ~20C. Male gamete exflagellation was recorded and analysed by automated microscopy after 20 min. All compounds were tested in 4 independent experiments and data presented here is the mean.; format: functional; design: concentration or dose not given beside the values
# Plasmodium berghei = assay: MMV: P. berghei-infected blood was withdrawn from mice by cardiac pucture before being immediately added to ookinete culture medium containing test compounds. 26 hr later, GFP-positive ookinetes were identified and counted by automated microscopy. All compounds were tested in 4 independent experiments and data presented here is the mean.; format: functional; design: concentration or dose not given beside the values
# Plasmodium falciparum [3] = assay: as §1, with “mean.” for “mean. IC50s determined for selected compounds.”; format: functional; design: concentration or dose not given beside the values; details: NF54, 24 h
# Plasmodium falciparum [4] = assay: as §2, with “mean. IC50s determined for selected compounds.” for “mean.”; format: functional, organism-based
Structure (SMILES),IC50 (Plasmodium falciparum [1]) [µM],inhibition (Plasmodium falciparum [2]) [%],inhibition (Plasmodium berghei) [%],inhibition (Plasmodium falciparum [3]) [%],IC50 (Plasmodium falciparum [4]) [nM]
COc1ccc2c(c1)C1(Nc3ccccc3-c3nc4ccccc4n31)C(=O)N2 (stereo not given),6.45,48.2,54.64,24,2900
CCCCc1ccc(NS(=O)(=O)c2cc3c4c(c2)CCN4C(=O)CC3)cc1,,15.5,-6.551,-27.1,
COc1ccc(C2C(C(=O)Nc3cccc(OC)c3)c3ccccc3C(=O)N2C2CCCCC2)cc1 (stereo not given),,46.2,-12.06,-25.1,
O=C(CCl)NCCOc1ccc(Cl)cc1Cl,,13.7,-18.34,-30.6,
O=c1nc(C=Cc2ccc(Br)cc2)oc2ccccc12,,35.1,19.61,4.96,
COCCNC(=O)c1ccc(OC2CCN(Cc3ccc(F)c(F)c3)CC2)c(Cl)c1,,16.4,-5.71,-14.3,
O=C(Nc1ccc(Br)cc1)Nc1cccc(Cl)c1,,24.2,-16.14,-16.5,
O=C(NCc1ccco1)C1CCN(S(=O)(=O)c2ccc(Br)cc2)CC1,,29.2,31.69,5.71,
CC1(c2ccccc2)Nc2ccccc2-c2nc3ccccc3n21 (stereo not given),,11.7,-11.28,0.151,
Cc1nc2ccccc2c(O)c1CC=C(Cl)Cl,,6.46,2.285,-3.75,
CCOc1ccc(/C=C/c2nc(=O)c3ccccc3o2)cc1,,23.7,-4.823,-30.2,
FC(F)(F)c1cccc(CNC2CCN(CCc3ccccc3)CC2)c1,,-0.872,1.472,-31.1,
CC1CCN(Cc2ccc(NC(=O)c3cc4ccc5cccnc5c4[nH]3)cc2)CC1,,10.2,-17.24,-3.24,
Cc1ccc(-c2cc3c(nn2)-c2ccccc2C3=O)cc1,,30.4,22.47,-20.4,
Oc1ccc(C(=C(Cl)Cl)c2ccc(O)cc2)cc1,,5.51,3.378,-25.3,
Cc1sc(NC(=O)c2ccccc2)c(C(c2cccs2)N2CCN(c3ccccc3)CC2)c1C (stereo not given),,8.21,-17.69,-14.4,
COc1ccc(-c2cn3c(C(=O)Nc4ccccc4Cl)c(-c4ccccc4)c4c3n2CCCC4)cc1,,-67.8,15.55,-34.6,
COc1ccc(CCNC(=O)c2cc(S(=O)(=O)N3CC(C)CC(C)C3)ccc2Sc2ccc(F)cc2)cc1OC (stereo not given),,-26.1,-21.03,4.07,
COc1cc2cc(C(=O)Nc3ccccc3)c(N)nc2cc1OC,,22,8.567,-10,
Oc1ccc(Br)cc1CN1CCN(Cc2ccc(Cl)cc2)CC1,,-54.3,-27.93,-35.8,
Cc1ccc(NC(=O)Nc2cccc(Cl)c2)cc1F,,2.14,-16.5,-4.87,

Structure (SMILES),IC50 (Plasmodium falciparum [1]) [µM],inhibition (Plasmodium falciparum [2]) [%],inhibition (Plasmodium berghei) [%],inhibition (Plasmodium falciparum [3]) [%],IC50 (Plasmodium falciparum [4]) [nM]
Cc1ccnc(NC(c2cccc(OCc3ccccc3)c2)c2ccc3cccnc3c2O)c1 (stereo not given),,11,-0.9408,-12.7,
O=C(CCc1ccccc1)c1ccccc1OCC(O)CN1CCCCC1 (stereo not given),,22.9,-0.1506,-34.8,
CCN1CCN(c2cc(C)c3cc(NC(=O)c4ccc(OC)c(OC)c4)ccc3n2)CC1,,-3.72,-2.902,-8.68,
CC1=C(CC(=O)c2cccc([N+](=O)[O-])c2)C(=O)c2ccccc2C1=O,,-2.58,-6.724,-17.4,
O=C(O)C1Cc2c([nH]c3ccccc23)C(c2ccc(Cl)cc2Cl)N1 (stereo not given),,21,-13.83,-17.3,
Cc1cc(N2CCCC2)nc(Nc2ccc(NC(=O)CCc3ccccc3)cc2)n1,,-19.1,-8.954,-8.07,
C=CCc1c(C)nc2ccccc2c1O,,52.3,19.81,-51.4,
Cc1cc(Nc2ccc(Cl)cc2)n2nc(C(F)(F)F)nc2n1,,15.3,-18.89,-10.6,
CCOC(=O)c1cnc2ccc(OC)cc2c1NCc1ccccc1,,-12.8,-6.823,-40.9,
COc1ccc(-c2nc(N3CCN(C(=O)C4CCCCC4)CC3)c3c4c(sc3n2)CCCC4)cc1,,1.21,-8.277,-9.88,
CCOc1ccc(CN2CCN(CC(O)COc3ccc(OCC(O)CN4CCN(Cc5ccc(OCC)cc5)CC4)cc3)CC2)cc1 (stereo not given),,-9.77,-13.58,-37.4,
CCc1ccc(Nc2cc(C)nc3nc(C)nn23)cc1,,20.5,-14.94,-17.7,
CCCCOc1ccc(C(=O)Nc2cc(C)on2)cc1,,47.5,1.333,-26.5,
N#Cc1nc(Cc2cccc3ccccc23)oc1N1CCN(C(c2ccccc2)c2ccccc2)CC1,,10.2,-7.443,-38.4,
FC(F)(F)c1cccc(Nc2nc3ccccc3nc2Nc2cccc(C(F)(F)F)c2)c1,,24.6,-0.8978,-14.6,
O=C(NC1CCN(Cc2ccccc2)CC1)c1cc(C(=O)NC2CCN(Cc3ccccc3)CC2)cc(C(=O)NC2CCN(Cc3ccccc3)CC2)c1,,57,-11.8,-6.87,
O=[N+]([O-])c1ccc(C=NNc2nc3ccccc3[nH]2)cc1,,18.3,-19.94,-17,
OCCNc1nc(Nc2ccc(Cl)c(Cl)c2)nc2ccccc12,,-35.4,17.26,-25.8,
CC1CC(C)CN(C(=O)c2ccc(Cl)cc2Cl)C1 (stereo not given),,30.8,-6.319,-18.2,
CCOC(=O)c1c[nH]c2c(CC)cccc2c1=O,,21.5,-1.306,8.74,
Cc1ccccc1OCCSc1nc2ccc(NC(=O)c3ccccc3)cc2s1,,5.46,-15.11,-13.8,

Structure (SMILES),IC50 (Plasmodium falciparum [1]) [µM],inhibition (Plasmodium falciparum [2]) [%],inhibition (Plasmodium berghei) [%],inhibition (Plasmodium falciparum [3]) [%],IC50 (Plasmodium falciparum [4]) [nM]
CC(C)(C)C(=O)Nc1ccc(C(=O)Nc2cccc(-c3nc4ccccc4[nH]3)c2)cc1,,11,14.15,-2.43,
Cc1cc(C=C2SC(=Nc3ccccc3)N(C3CCCC3)C2=O)c(C)n1-c1ccc(Cl)cc1,,31.4,-28.39,-30.5,
Cc1cc(NC(=O)c2ccc(-c3ccccc3)cc2)no1,,18.9,-9.578,-45.6,
COc1cccc(C2(C)Nc3ccccc3-c3nc4ccccc4n32)c1 (stereo not given),,-12.6,6.874,7.61,
COc1ccccc1N1C(=N)SC(=Cc2ccc(OCc3ccccc3F)cc2)C1=O,,12.8,33.34,10.4,
COc1ccc2c(c1)OC(O)(C(F)(F)C(F)(F)F)CC2=O (stereo not given),,-139,-0.6954,-4.89,
O=C(Nc1ccc(N2CCN(Cc3ccccc3)CC2)cc1)c1cccs1.O=C(O)C(F)(F)F,,39.5,16.79,16.2,
COc1cc(-c2nc(-c3ccc(Sc4ccccc4)cc3)c(-c3ccccc3)[nH]2)cc(OC)c1O,,13.5,-6.549,-13.7,
CCN(CC)CCCNc1nc(-c2ccc(Cl)cc2)nc2ccccc12,,-49.2,-4.546,-19.2,
CCC(O)c1ccc(Br)cc1NC(=O)c1cccc(Cl)c1 (stereo not given),,4.9,-8.417,-44,
Cc1ccc(Cn2c(N3CCC(C(=O)NCc4cccs4)CC3)nc3ccccc32)cc1,,12.1,6.449,-22.4,
O=C1c2ccc3c4c(ccc(c24)C(=O)N1CCCCO)C(=O)N(CCCCO)C3=O,,-2.41,-0.9886,-45.3,
COc1ccc2nc(C)cc(Nc3ccc(Cl)cc3)c2c1,,-17.3,4.092,-15.3,
COc1ccc(N2CCN(C(CNC(=O)CC(C)(C)C)c3ccc4c(c3)OCO4)CC2)cc1 (stereo not given),,1.8,-5.344,-24.8,
Cc1ccc(OCCCCCCNCCO)c(C)c1,,-19.1,-11.75,0.189,
CCN1CCCC1CNc1[nH]cnc2c3cc(Cl)ccc3nc1-2 (stereo not given),,18.2,-0.006896,3.48,
CCCN(CCC)CC(O)COc1ccccc1C(=O)Nc1ccccc1 (stereo not given),,0.885,-27.28,-10.5,
Cc1ccccc1OCCSc1nc2ccc(NC(=O)c3cccs3)cc2s1,,11.6,-6.357,-2.71,
COc1ccc(CN2CCN(Cc3ccccc3)CC2)c(O)c1,,-11.1,-17.51,-16.4,
